Test results taken from patent US12239686B2, “Immune checkpoint inhibitor combinations” (LYTIX BIOPHARMA AS, priority 2014, dated 2025).
Non-standard residues stand in square brackets, D forms with d. Residues, ends and D or L forms follow the SMILES beside them. No end group written: not given here. Bip = N[C@@H](Cc1ccc(-c2ccccc2)cc1)C(=O)O; dBip = N[C@H](Cc1ccc(-c2ccccc2)cc1)C(=O)O; Dip = N[C@H](C(=O)O)C(c1ccccc1)c1ccccc1

Key:
Assay type in all cases: cell-based, human
HL-60/ADR = experiment: In vitro cytotoxic activity, MTS assay; resistance index; conditions: HL-60/ADR vs sensitive HL-60 (doxorubicin resistance)
Method: (§1) Tumor cells were grown as adherent monolayers or as suspensions at 37° C. in a humidified atmosphere (5% CO2, 95% air). The culture medium was RPMI 1640 containing 2 mM L-glutamine (Lonza, Belgium) and supplemented with 10% fetal bovine serum (FBS, Lonza). For experimental use, the adherent cells were detached from the culture flask by a 5-minute treatment with trypsin-versene (Lonza), diluted in Hanks' medium without calcium or magnesium (Lonza) and neutralized by addition of complete culture medium. Cells were counted in a hemocytometer and their viability was assessed by 0.25% trypan blue exclusion.
(§2) Tumor cells were plated in 96-well flat-bottom microtitration plates (Nunc, Dutscher, Brumath, France) and incubated at 37° C. for 24 hours before treatment in 190 μl of drug-free culture medium supplemented or not with 10% FBS for adherent or suspension growing cell lines, respectively.
(§3) The adherent cell lines were washed once with 200 μl FBS-free culture medium before treatment. Tumor cells were incubated for 4 hours with 10 concentrations of compounds in ¼ dilution step with a top dose of 400 μM (range 4×10^−4 to 4×10^−10 M), with 1% (final concentration) Triton X-100 as positive control and FBS-free culture medium as negative control. The cells (190 μl) were incubated in a 200 μl final volume of FBS-free culture medium containing test substances at 37° C. under 5% CO2.
(§4) Three independent experiments were performed, each concentration being tested in quadruplicate. Control cells were treated with vehicle alone. At the end of treatments, the cytotoxic activity was evaluated by a MTS assay (see § 3.3).
(§5) Like MTT, MTS is bioreduced by cells into a formazan product that is directly soluble in culture medium without processing, unlike MTT.
(§6) At the end of the cells treatment, 40 μl of a 0.22 μm filtered freshly combined solution of MTS (20 ml at 2 mg/ml, Ref G1111, Batch 235897, Exp 03/2009, Promega, Charbonnières, France) and PMS (1 ml at 0.92 mg/ml, Ref P9625, Batch 065K0961, Sigma) in Dulbecco's Phosphate Buffered Saline (DPBS, Ref 17-513Q, Batch 6MB0152, Cambrex), were added in each well. Culture plates were incubated for 2 h at 37° C. Absorbency (OD) were measured at 490 nm in each well using VICTOR^3TM 1420 multilabeled counter (Wallac, PerkinElmer, Courtaboeuf, France).
(§7) [formula] • The OD values are the mean of 4 experimental measurements. • IC50: drug concentration to obtain a 50% inhibition of cell proliferation.
(§8) The dose-response curves were plotted using XLFit 3 (IDBS, United Kingdom). The IC50 determination values were calculated using the XLFit 3 software from semi-log curves. Individual IC50 determination values as well as mean and SD values were generated.
(§9) Resistance index was calculated using the following formula: […]
(§10) Resistance index was calculated for each compound for each couple of sensitive and resistant cell lines. Individual resistance index was calculated when IC50 values of both sensitive and corresponding resistant cell lines were determined within same experiment. In addition, resistance index was also calculated ratio of mean IC50 values obtained during three independent experiments.

IGROV-1/CDDP = IGROV-1/CDDP vs IGROV-1 (cisplatin resistance)
Method: as §1, §2, §3, §4, §5, §6, §7, §8, §9, §10

MCF-7/mdr = MCF-7/mdr vs sensitive MCF-7 (doxorubicin resistance)
Method: as §1, §2, §3, §4, §5, §6, §7, §8, §9, §10

CCRF-CEM/VLB = experiment: Resistance index from MTS cytotoxicity; conditions: CCRF-CEM/VLB vs CCRF-CEM
Method: as §1, with “exclusion. […]” for “exclusion.”
Three independent experiments were performed, each concentration being tested in quadruplicate. […] At the end of treatments, the cytotoxic activity was evaluated by a MTS assay (see § 3.3). […]
At the end of the cells treatment, 40 μl of a 0.22 μm filtered freshly combined solution of MTS (20 ml at 2 mg/ml, Ref G1111, Batch 235897, Exp 03/2009, Promega, Charbonnières, France) and PMS (1 ml at 0.92 mg/ml, Ref P9625, Batch 065K0961, Sigma) in Dulbecco's Phosphate Buffered Saline (DPBS, Ref 17-513Q, Batch 6MB0152, Cambrex), were added in each well. […] Absorbency (OD) were measured at 490 nm in each well using VICTOR^3TM 1420 multilabeled counter (Wallac, PerkinElmer, Courtaboeuf, France). […]
as §9

A375 cells = experiment: Confocal microscopy, fluorescence-labeled peptide internalization; conditions: 1.5 and 3 μM
Method: Fixed cells, fluorescence-labeled peptide-Subconfluential A375 cells were seeded at 8,000 cells/well as above, and transfected on the second day using the Lipofectamine LTX with Plus transfection reagents (Invitrogen) following the manufacturer's protocol. The mitochondria were labeled using the pDsRed2-Mito, and the nucleus was labeled using the GFP-Histon2B plasmid (Imaging Platform, University of Tromsø). A day after transfection, cells were washed twice with serum-free RPMI, and treated at different concentration and incubation periods with LTX-315 Pacific Blue or LTX-328 Pacific Blue.
Control cells were treated with unlabeled LTX-315 and also with serum-free RPMI only. After incubation, cells were fixed with 4% paraformaldehyde in PBS, and the wells were covered with Prolong Gold antifade (Invitrogen). Cells were further analyzed by use of a Leica TCS SP5 confocal microscope, with a […] objective. Pacific Blue, GFP and Ds Red were excited using UV, with 488 and 561 lasers, and fluorescence channels were sequentially detected using the following band passes: UV: 420-480 nm (with attenuation), 488: 501-550 nm and 561: 576-676 nm.

Compound	Resistance index (RI) (HL-60/ADR)	Resistance index (RI) (IGROV-1/CDDP)	Resistance index (RI) (MCF-7/mdr)	Resistance index (RI) (CCRF-CEM/VLB)	internalization of Pacific Blue-labeled peptide (A375 cells)
NCCCC[C@H](NC(=O)[C@H](Cc1c[nH]c2ccccc12)NC(=O)[C@H](Cc1c[nH]c2ccccc12)NC(=O)[C@H](CCCCN)NC(=O)[C@H](CCCCN)NC(=O)[C@H](Cc1c[nH]c2ccccc12)NC(=O)[C@H](Cc1ccc(-c2ccccc2)cc1)NC(=O)[C@H](CCCCN)NC(=O)[C@@H](N)CCCCN)C(N)=O [LTX-313, K-K-Bip-W-K-K-W-W-K-NH2] (H-KK[Bip]WKKWWK-NH2; N-terminus assumed)	1.16	0.49	1.24	0.76	
NCCCC[C@H](NC(=O)[C@H](Cc1c[nH]c2ccccc12)NC(=O)[C@H](CCCCN)NC(=O)[C@H](CCCCN)NC(=O)[C@@H](NC(=O)[C@H](Cc1c[nH]c2ccccc12)NC(=O)[C@H](CCCCN)NC(=O)[C@H](CCCCN)NC(=O)[C@@H](N)Cc1c[nH]c2ccccc12)C(c1ccccc1)c1ccccc1)C(N)=O [LTX-302, W-K-K-W-Dip-K-K-W-K-NH2] (H-WKKW[Dip]KKWK-NH2; N-terminus assumed)	1.31	0.33	1.23		
N=C(N)NCCC[C@H](NC(=O)[C@H](Cc1c[nH]c2ccccc12)NC(=O)[C@H](Cc1c[nH]c2ccccc12)NC(=O)[C@H](CCCNC(=N)N)NC(=O)[C@H](CCCNC(=N)N)NC(=O)[C@@H](NC(=O)[C@H](Cc1c[nH]c2ccccc12)NC(=O)[C@H](CCCNC(=N)N)NC(=O)[C@@H](N)CCCNC(=N)N)C(c1ccccc1)c1ccccc1)C(N)=O [LTX-320, R-R-W-Dip-R-R-W-W-R-NH2] (H-RRW[Dip]RRWWR-NH2; N-terminus assumed)	0.90	0.49	1.19		
KAQ[Dip]QKQAW-NH2 [LTX-328, reference compound]					did not demonstrate any internalization
NCCCC[C@@H](N)C(=O)N[C@H](CCCCN)C(=O)N[C@H](Cc1ccc(-c2ccccc2)cc1)C(=O)N[C@H](Cc1c[nH]c2ccccc12)C(=O)N[C@H](CCCCN)C(=O)N[C@H](CCCCN)C(=O)N[C@H](Cc1c[nH]c2ccccc12)C(=O)N[C@H](Cc1c[nH]c2ccccc12)C(=O)N[C@H](CCCCN)C(N)=O [LTX-329, k-k-bip-w-k-k-w-w-k-NH2] (H-[dK][dK][dBip][dW][dK][dK][dW][dW][dK]-NH2; N-terminus assumed)	0.80	0.46	1.07	0.76	
